Where two headings read alike, the source gives them in different places. Marks after values point to notes of the source that are not given here.
Experiments:
[1] = Solid state stability by UPLC; format: physicochemical; conditions: solid
Method: Solid state stability studies were performed by storing a test sample of the co-crystal at different temperatures and under conditions of different relative humidity for a period of one to three months. Stability was judged by Ultra performance liquid chromatography (UPLC) analysis of the test co-crystals. Percent degradation of API in a test sample of the co-crystal was calculated as follows: Co-crystals in accordance with the invention are fairly stable across the temperature range used in the study. […] Without ascribing to a particular theory, crystallinity may contribute to the stability of inventive co-crystals. Table 7 illustrates data from a stability of a Formula I glutaric acid co-crystal in accordance with the invention across a range of temperatures and in the presence of 75% relative humidity at 40° C. […] Further supporting the hypothesis that crystallinity contributes to increased stability was provided by comparing the amorphous form of the free base of a Formula I compound to the crystalline form of a Formula I compound as illustrated in Table 8.

[2] = Solubility and solution stability in buffers by UPLC; format: physicochemical; conditions: thermodynamic from solid, read-out: solubility: free-base form of the Formula I compound present per milliliter of buffer solution
Text: Studies have shown that the co-crystals were soluble in water and buffered solvents.
Unlike the tosylate salt, no genotoxic by-products are formed in solutions of the inventive co-crystals.

[3] = Pharmacokinetic study after oral administration; format: in vivo, cynomolgus monkeys; conditions: cynomolgus monkeys, oral, 10 mg/kg
Text: Studies were undertaken to compare the pharmacokinetics (PK) of the glutaric acid co-crystal to the PK of the tosylate salt of the Formula I compound. A 3% solution of Blanose 7LF PM without preservatives was used to formulate the glutaric acid co-crystal and tosylate salt. Results from a pharmacokinetic study in cynomolgus monkeys indicate that the plasma concentration of the glutaric acid co-crystal was greater than the corresponding tosylate salt following oral administration of each compound.
In this study, each compound was administered orally at a dose of 10 mg/kg to cynomolgus monkeys. Following administration, blood was obtained from each test subject at 0 min, 60 min, 120 min and 180 minutes. After separating the plasma from whole blood an aliquot to each plasma sample was denature by the addition of 70% ethanol. The denatured protein was pelleted by centrifugation and the supernatant was collected and dried using a stream of dry nitrogen gas. The pellet thus obtained was re-constituted in water containing 0.1% formic acid and the re-constituted mixture was analyzed by UPLC using a HSS-T3 (high strength silica) column or an YMC TriartC-18 column. Gradient elution using a mixture of water containing 0.1% HCOOH (mobile phase-A) and acetonitrile containing 0.1% HCOOH (mobile phase-B) was employed for analysis of the pharmacokinetic (PK) samples.

HBV = assay: microbe, parasite or virus in culture; conditions: cultured HepaRG cells
Method: Direct inhibition of viral replication was evaluated by monitoring the levels of secreted HBV DNA and the levels of HBV surface antigen (HBsAg) in cultures containing HBV infected HepaRG cells.
After three days incubation, the combined medium was replaced with differentiation medium and the cells were maintained in the differentiation medium for an additional 2 to 4 weeks. The differentiation medium was renewed every 2 to 3 days throughout the incubation period. Differentiated HepaRG cells (HepaRGd) display hepatocyte-like cell islands surrounded by monolayer of biliary-like cells. Prior to HBV infection and compound treatment, HepaRGd cells were seeded into collagen I coated 96-well plates (Gibco, Cat# A11428-03) at 50,000 to 60,000 cells per well. Cells were allowed to recover their differentiated phenotype in 96-well plates for at least 1 week after plating prior to HBV infection.
HBV inoculum was collected from HepG2.2.15 cultured cells, a cell line that supports HBV (genotype D, strain ayw) replication and virion secretion as disclosed in Sells M A., et al., PNAS, 84(4): 1005-1009. HepG2.2.15 cells were maintained in DMEM+GlutaMAX-I (Invitrogen) containing 1× Pen/Strep (Invitrogen), 10% FBS, and 0.25 mg/ml G-418 (Invitrogen) using hyperflasks (Corning) pre-coated with collagen I (BD Biosciences). Upon reaching confluency, HepG2.2.15 culture media was replaced with DMEM+GlutaMAX-I containing 1× Pen-Strep, 2.5% FBS, and 1% DMSO for 3 days and then replaced with DMEM+GlutaMAX-I containing 1× Pen-Strep and 1% DMSO. The 1% DMSO containing media was collected every 3 to 4 days over a two week period and HBV infectious virions and subviral particles were pelleted by ultracentrifugation through a 20% sucrose cushion in a Ti 45 Beckman rotor at 45,000 rpm for 3 hours at 4° C. The pellets were resuspended in WEM at a concentration of 10^8-10^9 genome equivalents (GE) per ml, determined by real time PCR as described below using a genotype D HBV containing plasmid DNA as an internal standard. To evaluate the infectivity of the inoculum, HepaRGd cells in 96-well plates were infected in differentiation medium containing 50 to 200 GE/cell and 4% PEG 8000 (PolyEthylene Glycol 8000, Sigma, Cat# P5413-500G) for 16 hr at 37° C. At the end of the infection, HBV inoculum was removed and cells were washed 3 times with differentiation medium. Differentiation medium was replenished every 2 to 3 days and HBV replication was monitored by measuring secreted HBV DNA, hepatitis B surface (HBsAg) and/or e (HBeAg) antigens.
HBsAg was detected from 50 μL of HBV infected HepaRG supernatants using the HBsAg chemiluminescence immunoassay (CLIA) kit following instructions as recommended by the manufacturer (Autobio Diagnostics Co., Zhengzhou, China). HBV DNA was extracted from 50 μL of HBV infected HepaRGd supernatants using the MagNA Pure 96 DNA and Viral NA Small Volume Kit (Roche, Cat#05 467 497 001). […] All PCR reactions were performed using the ViiA7 Real Time PCR system (Life Technologies).
Both direct and indirect inhibitory activity of HBV replication was measured. […] Aliquots of these reagents were added to independent wells of a 96-well culture plate containing HBV infected HepaRGd cells on day 4 post infection. The final concentration of DMSO in each well was 2%. The HepaRGd cells used in the inhibition study were maintained in differentiation media containing 2% DMSO.

CC(=O)O[C@@H]1C[C@@H](CO)O[C@H]1n1c(=O)sc2cnc(N)nc21 [glutaric acid co-crystal, 5-amino-3-(2′-O-acetyl-3′-deoxy-β-D-ribofuranosyl)-3H-thiazolo[4,5]pyrimidine-2-one]
% Area Formula I ([1]; 1 month, 2-8° C.): 99.02 % Area
% degradation ([1]; 1 month, 2-8° C.): −0.08%
% Area Formula I ([1]; 1 month, 40° C.): 99.05 % Area
% degradation ([1]; 1 month, 40° C.): −0.11%
% Area Formula I ([1]; 1 month, 40° C./75% r.h.): 99.14 % Area
% degradation ([1]; 1 month, 40° C./75% r.h.): −0.2%
% Area Formula I ([1]; 1 month, 60° C.): 99.01 % Area
% degradation ([1]; 1 month, 60° C.): −0.07%
% Area Formula I ([1]; 1 month, RT): 98.9 % Area
% degradation ([1]; 1 month, RT): 0.04%
% Area Formula I ([1]; 2 months, 2-8° C., reference for 2 month stability): 99.32** % Area
% Area Formula I ([1]; 2 months, 40° C.): 99.35 % Area
% degradation ([1]; 2 months, 40° C.): −0.04%
% Area Formula I ([1]; 2 months, 40° C./75% r.h.): 99.34 % Area
% degradation ([1]; 2 months, 40° C./75% r.h.): −0.03%
% Area Formula I ([1]; 2 months, 60° C.): 99.56 % Area
% degradation ([1]; 2 months, 60° C.): −0.25%
% Area Formula I ([1]; 2 months, RT): 99.22 % Area
% degradation ([1]; 2 months, RT): −0.10%
T0 % Area Formula I ([1]; T0, reference for 1 month stability): 98.94* % Area
solubility ([2]; aqueous buffer, pH 4.0 buffer): ~8 mg/mL
solubility ([2]; buffer solution, aqueous buffer, pH 7.0 buffered solution): ~22 mg/mL
solubility ([2]; buffer solution, simulated gastric fluid, pH 1.0 buffered solution): > 60 mg/mL
plasma concentration of the de-acetylated form of the Formula I compound compared to tosylate salt [3]: about two-fold
direct inhibition of HBV viral replication (HBV): did not inhibit viral replication
